# From patent US20170114128A1, “USE OF TGF-BETA ANTAGONISTS OF TREAT TYPE-2 DIABETES” (ALBERT EINSTEIN COLLEGE OF MEDICINE, INC., priority 2014, published 2017)
# Experiments:
# [1] = test system: hypothalamic NF-κB signaling components; test: Western blots of hypothalamic NF-κB signaling components after third-ventricle TGF-β1; type: in vivo, mice
# Protocol: Induction of hypothalamic NF-κB activation by TGF-β: TGF-β is often appreciated for anti-inflammatory feature in immune response, but, depending on physiological context and particularly in pathological conditions, TGF-β can be inflammatory (28)—although it is atypical and many details are still unclear. Here, because NF-κB has been known to atypically mediate hypothalamic inflammation in obesity or aging (12-14,18-20,23-27), it was analyzed if NF-κB signaling components were different in the hypothalamus of mice with third-ventricle injection of TGF-β vs. vehicle. […] First, since IκBα loss is the specific step that immediately liberates cytoplasmic NF-κB for nuclear translocation, and NF-κB subunit RelA in the nucleus undergoes phosphorylation, RelA phosphorylation was measured in mice injected with TGF-β1 or vehicle. […] Second, it was evaluated if TGF-β1-triggered NF-κB activation could be involved in HFD-induced hypothalamic inflammation. By employing heterogeneous Tgfb1 knockout (Tgfb1 +/−) mice, whether haplodeficiency of Tgfb1 in this mouse model could affect the induction of hypothalamic inflammation by HFD feeding was examined To do so, adult Tgfb1+/− mice and littermate WT controls were subjected to HFD feeding for three weeks, and chow feeding was included to provide as dietary control. Indeed, hypothalamic Tgfb1 mRNA in chow-fed Tgfb1+/− mice dropped by ˜50% compared to chow-fed WT (FIG. 4b), which was consistent with the literature (35). […] Using these hypothalamic samples, we examined mRNA levels of a list of inflammation-related molecules including TNFα, IL-6, SOCS3, TLR4, PTP1B, PKCλ and PKCι. […] Therefore, brain TGF-β excess plays a role in inducing diet-induced hypothalamic inflammation.
# Thus, while kinase (e.g., IKK)-induced IκBα phosphorylation is a crucial, rapid signaling reaction in classical inflammation, this process is not primarily critical in TGF-β1-induced hypothalamic inflammation.
# To further assess this point, it was asked if the effects of brain TGF-β excess could be impaired by ablation of a signaling component, such as toll-like receptor-4 (TLR4) or myeloid differentiation primary response gene 88 (MyD88), because they employ kinase signaling to induce IκBα phosphorylation and thus NF-κB activation. […]
# Protein, mRNA and peptide analyses. […] Quantification of Western blots was processed with Image J. Total RNA was extracted from hypothalamic tissue using TRIzol® (Invitrogen), and cDNA was synthesized using M-MLV RT System (Promega). Using SYBR® Green PCR Master Mix (Applied Biosystems), expression levels of target genes were analyzed via PCR amplification and quantification. […] Serum and CSF TGF-β content were measured using TGF-β ELISA kit (R&D Systems).
# normal C57BL/6 mice = test: Hyperinsulinemic-euglycemic clamp after third-ventricle TGF-β1; type: in vivo
# Source text: Brain TGF-β excess increases hepatic glucose production: In physiology, blood glucose levels are balanced by glucose uptake in metabolic tissues (such as muscles) and glucose production in the liver. A hyperinsulinemic-euglycemic clamp was employed to analyze if any of these metabolic processes was relevant to the pro-diabetic effect of brain TGF-β excess. In the experiment, normal C57BL/6 mice were pre-implanted with a catheter into the jugular vein and also a cannula into the hypothalamic third ventricle. Following surgical recovery, overnight-fasted mice were injected with TGF-β1 (4 ng) using the same protocol as described in FIG. 1e, and were subjected to the clamp procedure. During the clamp period, blood glucose concentrations were maintained at approximate 120-130 mg/dl, with steady insulin infusion (4 mU kg^−1 min^−1) together with various rates of 20% glucose infusion to maintain euglycemia. […] While the basal blood insulin concentrations in TGF-β-injected mice were higher which indicated insulin resistance, constant insulin infusion in the clamp elevated the blood insulin concentrations of these mice and controls to similar levels. […] Blood glucagon concentrations were similar between TGF-β1-treated mice and controls. Therefore, the brain-liver axis mediates the pro-diabetic effect of brain TGF-β excess.
# Hyperinsulinemic-euglycemic clamp. Mice that were pre-implanted with cannula in the third ventricle were anesthetized, and a catheter was inserted into the right jugular vein and crossed over from the underneath and out the back of the neck. Following surgical recovery, overnight-fasted mice were injected with TGF-β1 (4 ng) vs. vehicle, once at the beginning of fasting and the other in the following morning at four hours prior to clamp. Conscious mice were then subjected to euglycemic clamp, with the blood glucose concentrations maintained at 120-130 mg/dl for four hours, followed by steady-state human insulin infusion (4 mU kg−1 min−1) together with infusion of 20% glucose at variable rates to maintain euglycemia. During the final 1 hour of the clamp, [3-^3H] glucose and 2-deoxy-D-[1-^14C] glucose (PerkinElmer) infusions were used. Blood samples were collected from tail vein. At the end of the procedure, mice were euthanized, and various tissues were removed and quickly frozen in liquid nitrogen. Plasma insulin and glucagon concentrations were analyzed with ELISA kits (Crystal Chem. and R&D Systems).
# [2] = third-ventricle injection vs vehicle
substance,measurement,setting,value
"TGF-β1: transforming growth factor-β1 (Sigma), cytokine dissolved in artificial cerebrospinal fluid for third-ventricle injection",hypothalamic TAK1 phosphorylation,"[1]; mouse, in vivo",did not lead to hypothalamic TAK1 phosphorylation
same,phosphorylated levels of IκBα,[1]; normalized by IκBα protein levels,did not change
same,hypothalamic IκBα protein levels,[1]; [2],significant reduction
same,hypothalamic RelA phosphorylation,[1]; [2],significantly increased
same,"glucose infusion rate, lower than vehicle-injected mice","normal C57BL/6 mice; 4 ng, clamp, insulin 4 mU kg^−1 min^−1, on average",80%
same,hepatic glucose production vs control,normal C57BL/6 mice; basal condition,higher
same,basal blood insulin concentrations,"normal C57BL/6 mice; basal, vs controls",higher
same,rates of glucose disposal vs vehicle,"normal C57BL/6 mice; clamp, 4 ng",similar
same,suppression of hepatic glucose production by insulin infusion,normal C57BL/6 mice; during clamp,failed to do so
same,blood glucagon concentrations vs controls,"normal C57BL/6 mice; mouse, in vivo",similar
same,glucose infusion rates vs vehicle-injected mice,normal C57BL/6 mice; since the first 20 min of clamp,significantly lower
